Values of other authors, collected in patent US20070117788A1, “Combination of a dopamine D2-receptor agonist and tiotropium or a derivative therof for treating obstructive airways and other inflammatory diseases” (Boehringer Ingelheim Pharma GmbH & Co. KG, priority 2001, published 2007).

Columns and labels:
δ and ε protein kinase C = settings: with ethanol, neural cells in culture

Compound: CCCn1c(=O)c2c(C)nc(CC)n2c2nc(OC)ccc21 [Example D-22888]
- anti-allergic effect (antigen-challenged pig): strong anti-allergic affect
- rhinorrhea (antigen-challenged pig): inhibit rhinorrhea

Compound: Br.CCCN1CCc2cc(O)cc3c2[C@H]1Cc1ccc(O)c(O)c1-3 [R(−)-2,10,11-trihydroxy-N-propyl-noraporphine hydrobromide]
- translocation of δ and ε protein kinase C (δ and ε protein kinase C): acts synergistically with ethanol to cause translocation
